We go through 1 compound from patent publication US20230348401A1, “Inhibitors of Glucose-6-phosphate Dehydrogenase and Uses Thereof” (The Trustees of Princeton University, priority 2020, published 2023).

Where only a bound is given, the exact number is not on record here.

The target in experiment [1] is T1, G6PD (Homo sapiens, UniProt P11413). The experiment can be described thus: 2H transfer from 1-2H-glucose to NADPH active hydride and C16:0 in HCT116 cells. It is filed as cell-based. The settings on record: HCT116 cells. Also noted: endogenous in cells; host or cells: HCT116. An excerpt: Direct Monitoring of NADPH Produced by the G6PD Reaction. […] NADPH production is compartmentalized, and occurs through reduction of its redox partner NADP^+. G6PD is one of the main enzymes that generates NADPH, and catalyzes the transfer of electrons (in the form of hydride) from glucose-6-phosphate to NADP^+. By installing a deuterium at the “one” position of glucose (1-^2H-glucose), the transfer of that deuterium to the active hydride of NADPH via glucose-6-phosphate can be specifically monitored. Also, a major use of cytosolic NADPH is fat synthesis. Transfer of ^2H from glucose via NADPH into free palmitate (C16:0) requires two NADPH per two-carbon unit addition during its synthesis.
T1 sequence (P11413 whole entry): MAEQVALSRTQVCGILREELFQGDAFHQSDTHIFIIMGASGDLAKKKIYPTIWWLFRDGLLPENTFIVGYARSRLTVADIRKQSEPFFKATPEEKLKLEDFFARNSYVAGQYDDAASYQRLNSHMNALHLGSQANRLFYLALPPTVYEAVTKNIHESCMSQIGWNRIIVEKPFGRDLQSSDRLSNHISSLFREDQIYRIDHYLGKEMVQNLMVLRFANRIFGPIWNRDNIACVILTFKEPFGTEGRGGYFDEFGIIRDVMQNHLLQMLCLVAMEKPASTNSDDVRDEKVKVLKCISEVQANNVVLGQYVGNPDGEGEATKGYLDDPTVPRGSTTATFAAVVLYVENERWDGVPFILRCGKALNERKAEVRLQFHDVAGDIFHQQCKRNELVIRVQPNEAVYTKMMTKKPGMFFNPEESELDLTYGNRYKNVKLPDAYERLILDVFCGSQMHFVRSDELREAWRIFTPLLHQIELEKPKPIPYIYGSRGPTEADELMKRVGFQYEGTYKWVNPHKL
Next, G6PD mediated hydride transfer to NADPH was directly monitored. Specifically, transfer of deuterium from 1-^2H-glucose, via glucose-6-phosphate, to the NADPH’s active hydride was monitored (FIG. 1B). […] The impacted step was G6PD, as no change in substrate (G6P) labeling was observed (FIG. 1E). A major use of cytosolic NADPH is fat synthesis. Transfer of ^2H from glucose via NADPH into palmitate (C16:0), which requires two NADPH per 2-carbon unit addition during its synthesis, was quantified (FIG. 1B).
(§1) For all experiments involving stable isotope tracers (e.g., 1-^2H-glucose), the isotope tracer nutrient was substituted for unlabeled nutrient at the same concentration normally found in the base media for a given cell type (e.g., DMEM for HCT116, RPMI for T cells, etc.). In addition, dialyzed FBS was used as a supplement in place of FBS.
Cytosolic NADPH sources were traced, and redox active hydride labeling was calculated, using a previously described strategy. 1-^2H-glucose (which directly traces G6PD) or 3-^2H-glucose (which directly traces PGD) were used for tracing oxPPP contribution to NADPH; 4-^2H-glucose for ME1; [2,3,3,4,4-^2H5]-glutamine, for both ME1 and IDH1; and D2O, to account for solvent exchange.
For analysis of intracellular metabolites by LC-MS, adherent cell lines were plated and grown to 80% confluency in 6-well plates. At the start of an experiment, the appropriate media was added to cells, which included isotope tracers and/or chemical inhibitors as described. Cells were incubated at 37° C. at 5% CO2 for 2 hours (unless otherwise noted). For all experiments involving small molecule agents, DMSO concentrations were <0.2%. After 2 hours, media was removed by aspiration and metabolome extraction was performed (without any wash steps) by the addition of 800 µL of ice cold solvent (40:40:20 acetonitrile:methanol:water + 0.5% formic acid). After a 1-minute incubation on ice, the extract was neutralized by the addition of NH4HCO3 (15% w/v). The samples were incubated at -20° C. for approximately 30 minutes, at which point the wells were scraped and the extract transferred to Eppendorf tubes and centrifuged (15 minutes, 16000 rpm, 4° C.). The resulting supernatant was frozen on dry ice and kept at -80° C. until LC-MS analysis.

The target in experiment [2] is T1, G6PD. Description: Cellular thermal shift assay (CETSA) in HepG2 lysates. Also noted: endogenous in cells. The settings on record: up to 56° C. It counts as binding. As for the experimental part:
Lysates from HepG2 cells at 75% confluence were isolated with 0.5% Triton in TBS (20 mM, Tris pH 7.4, 150 mM NaCl) for 30 min on ice, pre-cleared by centrifugation and used for thermal shift assay as described 49. Briefly, inhibitor or DMSO control was added to lysates at indicated concentration and incubated for 30 min on ice followed by 3 min heating at 47° C., 50° C., 53° C., and 56° C. in a thermal cycler. After heating, tubes were cooled at room temperature for 3 min and insoluble fraction removed by centrifugation at 17,000 g for 20 min. The soluble fraction was separated by SDS-PAGE, transferred to PVDF membrane, and immunoblotted using indicated antibodies at a dilution of 1:2000. Blots were developed by chemiluminescence and imaged using LI-COR C-DiGit Western Blot Scanner. Two independent experiments were performed. Signal intensity of proteins from immunoblots was quantified using Image Studio version 5.2 for C-DiGit Scanner, and bands were normalized to signal intensity of the 47° C. treated samples. Relative signal intensities were plotted as bar graph relative to the DMSO treated control.

In experiment [3] the test system is RBCs. The experiment can be described thus: NADPH pools in red blood cells. It counts as cell-based, mouse. As for the experimental part: To isolate red blood cells, mice were euthanized by cervical dislocation followed by collection of approximately 200 µL whole blood via cardiac puncture into tubes containing 7.5 µL heparin (1000USP/mL, H3393, Sigma Aldrich). The cells were incubated on ice for approximately 5 minutes, then centrifuged (5 minutes, 500 rpm, 4° C.) followed by aspiration of the serum and buffy coat layer. Cells were gently resuspended in PBS and then pelleted (5 minutes, 500 rpm, 4° C.) three times. Cells were then resuspended in RPMI media and used immediately for experiments.
For suspension cells (including T cells and red blood cells), 2×10^6 cells were seeded in 1 mL of media in 12-well plates and incubated with appropriate media, which included isotope tracers and/or chemical inhibitors and/or cytokines, as described. For all experiments involving small molecule agents, DMSO concentrations were <0.2%. After 2 hours, cell suspensions were transferred to 1.5 mL tubes and pelleted (30 seconds, 6000 rpm, room temperature). Media was removed by aspiration and metabolome extraction was performed by the addition of 75 µL of ice cold solvent (40:40:20 ACN:MeOH:H2O + 0.5%FA). After a 5-minute incubation on ice, acid was neutralized by the addition of NH4HCO3. […]

Experiment [4] has as its system mouse CD8+ and CD4+ T cells. Description: Metabolites and 1-2H-glucose tracing in active T cells. It counts as cell-based. As for the experimental part: Cells were cultured in complete RPMI media (RPMI 1640 supplemented with 10% FBS, 100 U/ml penicillin, 100 µg/ml streptomycin, and 50 µM 2-mercaptoethanol). Naïve T cells were either rested in complete RPMI media supplemented with recombinant IL-7 (50U/mL) or stimulated for 48 hours with plate-bound anti-CD3 (10 µg/ml) and anti-CD28 (5 µg/ml) in complete RPMI media supplemented with 100 µM alanine and recombinant IL-2 (100 U/mL). Activated T cells were maintained in complete RPMI media supplemented with recombinant IL-2 (100 U/mL). All experiments on “active” T cells were performed at day 4-5 post-activation
as §1
For suspension cells (including T cells and red blood cells), 2×10^6 cells were seeded in 1 mL of media in 12-well plates and incubated with appropriate media, which included isotope tracers and/or chemical inhibitors and/or cytokines, as described. For all experiments involving small molecule agents, DMSO concentrations were <0.2%. After 2 hours, cell suspensions were transferred to 1.5 mL tubes and pelleted (30 seconds, 6000 rpm, room temperature). Media was removed by aspiration and metabolome extraction was performed by the addition of 75 µL of ice cold solvent (40:40:20 ACN:MeOH:H2O + 0.5%FA). After a 5-minute incubation on ice, acid was neutralized by the addition of NH4HCO3. After centrifugation (15 minutes, 16000 rpm, 4° C.), the resulting supernatant was transferred to a clean tube, frozen on dry ice and kept at -80° C. until LC-MS analysis.

The term IC50 denotes the concentration that gives 50% inhibition. Regarding `N#Cc1cc(Nc2ncc3c(n2)CCCCC3=O)cs1` [Compound 2, 4-([5-oxo-6H,7H,8H,9H-cyclohepta[d]pyrimidin-2-yl]amino)thiophene-2-carbonitrile], the “2H transfer from 1-2H-glucose to downstream product C16:0” value in experiment [1] (dose-response) is “dose-dependent decrease”. Also, in experiment [1] (read-out: IC50, decrease in 2H transfer from 1-2H-glucose to NADPH's active hydride), the IC50 was ~31 µM. The “thermal stabilization of G6PD” value in experiment [2] is “significant thermal stabilization of G6PD”. Further, the “sensitivity of NADPH pools” value in experiment [3] is given as “fairly sensitive”. The “NADPH and 6-pg levels” value in experiment [4] (10 µM, day 4-5 post-activation) is “decreased”. Moreover, the “2H transfer from glucose to NADPH” value in experiment [4] (10 µM, day 4-5 post-activation, 1-2H-glucose) is recorded as “completely blocked”. The fatty acid synthesis result in experiment [4] (CD8+ T cells) is “nearly completely ablated”. In experiment [4] (active CD8+ T cells, 50 µM), the “time to effects on NADPH labeling and NADP+, NADPH and 6-pg levels” value was ≤ 10 min. Further, the “time to restoration of NADPH, NADP+ and 6-pg levels after removing the inhibitor” value in experiment [4] (active T cells) is ≤ 2 h.
